The nature of experiment [1]: Luminescence Cell-Based Dose Retest to Confirm Inhibitors of Cancer Stem Cells. [Related pubchem assays (depositor defined):AID2717, AID2721]. Conditions: Homo sapiens. It is filed as functional.
For experiment [2], the target named is T1, Insulin-degrading enzyme (Homo sapiens, UniProt P14735).
T1 sequence (P14735 whole entry): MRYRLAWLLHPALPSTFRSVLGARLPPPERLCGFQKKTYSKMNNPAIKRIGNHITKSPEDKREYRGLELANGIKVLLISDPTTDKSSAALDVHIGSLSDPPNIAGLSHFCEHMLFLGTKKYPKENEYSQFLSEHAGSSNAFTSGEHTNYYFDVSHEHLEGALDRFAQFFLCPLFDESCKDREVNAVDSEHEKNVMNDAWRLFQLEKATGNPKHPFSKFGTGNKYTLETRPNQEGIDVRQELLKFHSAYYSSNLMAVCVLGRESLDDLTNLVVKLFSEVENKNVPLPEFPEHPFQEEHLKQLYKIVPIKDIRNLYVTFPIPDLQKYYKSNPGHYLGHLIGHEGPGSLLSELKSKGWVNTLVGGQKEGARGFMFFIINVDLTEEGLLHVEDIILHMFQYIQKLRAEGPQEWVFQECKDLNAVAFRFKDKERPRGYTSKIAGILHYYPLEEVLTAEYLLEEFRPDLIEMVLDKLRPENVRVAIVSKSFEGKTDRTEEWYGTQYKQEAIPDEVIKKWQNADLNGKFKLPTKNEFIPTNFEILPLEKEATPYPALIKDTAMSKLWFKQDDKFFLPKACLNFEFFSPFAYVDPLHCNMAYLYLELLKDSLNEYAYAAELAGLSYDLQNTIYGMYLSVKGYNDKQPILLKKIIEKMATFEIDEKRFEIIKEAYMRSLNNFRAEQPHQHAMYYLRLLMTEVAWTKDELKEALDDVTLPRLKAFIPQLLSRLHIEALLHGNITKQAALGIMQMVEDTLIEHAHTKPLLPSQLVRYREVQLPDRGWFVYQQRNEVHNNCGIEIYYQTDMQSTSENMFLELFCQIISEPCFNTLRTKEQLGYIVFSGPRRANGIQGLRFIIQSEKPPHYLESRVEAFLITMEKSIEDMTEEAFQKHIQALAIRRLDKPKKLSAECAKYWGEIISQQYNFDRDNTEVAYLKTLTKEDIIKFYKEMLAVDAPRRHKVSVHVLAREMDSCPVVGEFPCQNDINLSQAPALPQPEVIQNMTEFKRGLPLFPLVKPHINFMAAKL
The experiment can be described thus: recombinant IDE activation, cell-free – biochemical, fluorescence polarization, counter-screen for IDE activator project, dose response (AID 588681).

In experiment [3] the target is T1, Insulin-degrading enzyme. Nature of the experiment: cellular IDE activation of Abeta substrate cleavage – fluorescence polarization, HEK cells, dose response (AID 588439). It is filed as functional, cell-based.
For experiment [4], the system named is HEK293. The experiment can be described thus: membrane integrity loss in HEK cells – cell-based, fluorescence, cytotoxicity control for IDE activator project, dose response (AID 588440).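 Note: cytotoxicity by LDH release measuring loss of membrane integrity.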 It is filed as functional. The conditions noted are these: Homo sapiens.
Experiment [5] concerns HEK293. Nature of the experiment: optical interference in Abeta FP readout, dose response, artefact control for IDE activator project, biochemical, fluorescence polarization (AID 588442). Conditions: Homo sapiens. It is filed as functional, cell-based.
Experiment [6] has as its target Mu-type opioid receptor (Homo sapiens, UniProt P35372). It is filed as functional, cell-based.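 Note: U2OS cells with beta-arrestin recruitment to OPRM1 by beta-gal complementation.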
The target of experiment [7] is 5-hydroxytryptamine receptor 2A (Mus musculus, UniProt P35363). It is filed as functional, cell-based.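 Note: CHO-K1 cells with tagged receptor and beta-arrestin; agonist potency measured as compound-induced activation of the receptor.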
For experiment [8], the target named is NAD-dependent protein deacylase sirtuin-5, mitochondrial (Homo sapiens, UniProt Q9NXA8). Nature of the experiment: sirtuin-5 deacylation blockers, concentration series – biochemical, fluorescence imaging, cherry-pick, set 5, dose response (AID 720591).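 Note: desuccinylation of succinyl peptide AMC substrate read as fluorescence after trypsin release; potency of inhibitors that lower fluorescence and may act on trypsin instead.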
Experiment [9] deals with T2, Cytochrome P450 1A2 (Homo sapiens, UniProt P05177).
T2 sequence (P05177 whole entry): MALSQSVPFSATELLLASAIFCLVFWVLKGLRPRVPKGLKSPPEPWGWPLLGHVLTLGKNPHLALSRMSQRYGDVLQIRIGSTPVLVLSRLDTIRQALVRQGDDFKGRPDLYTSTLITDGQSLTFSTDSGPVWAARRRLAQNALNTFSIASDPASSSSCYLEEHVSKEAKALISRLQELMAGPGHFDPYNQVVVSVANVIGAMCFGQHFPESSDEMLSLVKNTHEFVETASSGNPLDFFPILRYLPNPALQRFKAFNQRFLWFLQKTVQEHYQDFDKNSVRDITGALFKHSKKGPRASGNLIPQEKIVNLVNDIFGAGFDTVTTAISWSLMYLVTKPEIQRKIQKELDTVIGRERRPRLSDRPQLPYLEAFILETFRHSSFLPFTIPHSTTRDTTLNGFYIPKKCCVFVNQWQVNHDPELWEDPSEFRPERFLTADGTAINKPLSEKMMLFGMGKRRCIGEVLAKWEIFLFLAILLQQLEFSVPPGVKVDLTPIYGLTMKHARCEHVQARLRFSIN

Experiment [10] concerns the target Voltage-gated inwardly rectifying potassium channel KCNH2 (Homo sapiens, UniProt Q12809). The conditions noted are these: Potency.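 Note: confirmatory quantitative high-throughput screen measuring inhibition of hERG channel activity.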
In experiment [11] the target is Sphingosine 1-phosphate receptor 2 (Homo sapiens, UniProt O95136). The experiment can be described thus: Late-stage fluorescence-based dose-response cell-based counterscreen assay to identify agonists of the Sphingosine 1-Phosphate Receptor 3 (S1P3): Sphingosine 1-Phosphate Receptor 2 (S1P2) agonist assay. It is filed as functional.
In experiment [12] the target is Sphingosine 1-phosphate receptor 4 (Homo sapiens, UniProt O95977). Nature of the experiment: Late-stage fluorescence-based dose-response cell-based counterscreen assay to identify agonists of the Sphingosine 1-Phosphate Receptor 3 (S1P3): Sphingosine 1-Phosphate Receptor 4 (S1P4) agonist assay. It is filed as functional.
Experiment [13] addresses Serine/threonine-protein kinase D3 (Homo sapiens, UniProt O94806). It is filed as functional.
Experiment [14] has as its target Mitogen-activated protein kinase 8 (Homo sapiens, UniProt P45983). It is filed as functional.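 Note: value comes from one member of a kinome-wide kinase profiling panel.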
Experiment [15] relates to CHO-K1. The experiment can be described thus: Counterscreen for antagonists of the orexin 1 receptor (OX1R; HCRTR1): Homogeneous time resolved fluorescence (HTRF)-based cell-based dose response assay to identify antagonists of the parental CHO-K1 cell line. [Related pubchem assays (depositor defined):AID434989, AID435008, AID463079, AID485270, AID492963, AID492964, AID492965, AID493232, AID504699, AID504701]. It is filed as functional. The conditions noted are these: Cricetulus griseus.

A short description of experiment [16]: Counterscreen for antagonists of the orexin 1 receptor (OX1R; HCRTR1): Fluorescence-based cell-based high throughput dose response assay to identify antagonists of the parental CHO cell line. [Related pubchem assays (depositor defined):AID434989, AID435008, AID463079, AID485270, AID492963, AID492964, AID492965, AID493232, AID504699, AID504701]. It is filed as functional.

In experiment [17] the target is T3, Orexin/Hypocretin receptor type 1 (Homo sapiens, UniProt O43613).
T3 sequence (O43613 whole entry): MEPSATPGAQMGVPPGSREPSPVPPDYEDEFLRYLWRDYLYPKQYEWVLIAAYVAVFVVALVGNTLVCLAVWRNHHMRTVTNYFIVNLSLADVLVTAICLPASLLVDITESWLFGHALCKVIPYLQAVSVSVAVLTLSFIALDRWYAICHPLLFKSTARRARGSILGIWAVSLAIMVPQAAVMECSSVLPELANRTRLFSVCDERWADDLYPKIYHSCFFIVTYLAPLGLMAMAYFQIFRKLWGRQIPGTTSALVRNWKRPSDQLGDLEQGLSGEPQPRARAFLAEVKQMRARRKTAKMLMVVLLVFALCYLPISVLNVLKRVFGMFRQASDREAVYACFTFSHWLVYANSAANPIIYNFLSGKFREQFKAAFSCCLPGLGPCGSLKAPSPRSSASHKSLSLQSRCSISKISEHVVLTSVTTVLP
The experiment can be described thus: Homogeneous Time Resolved Fluorescence (HTRF)-based cell-based high throughput dose response assay for antagonists of the orexin 1 receptor (OX1R; HCRTR1). [Related pubchem assays (depositor defined):AID434989, AID435008, AID463079, AID485270, AID492963, AID492964, AID492965, AID493232, AID504717, AID504718]. It is filed as functional.

The target in experiment [18] is T3, Orexin/Hypocretin receptor type 1. The experiment can be described thus: Fluorescence-based cell-based high throughput dose response assay for antagonists of the orexin 1 receptor (OX1R; HCRTR1). [Related pubchem assays (depositor defined):AID434989, AID435008, AID463079, AID485270, AID492963, AID492964, AID492965, AID493232, AID504717, AID504718]. It is filed as functional.

The target in experiment [19] is T4, Orexin receptor type 2 (Homo sapiens, UniProt O43614). Nature of the experiment: Counterscreen assay for antagonists of the orexin 1 receptor (OX1R; HCRTR1): Fluorescence-based cell-based dose response assay for antagonists of the orexin 2 receptor (OX2R; HCRTR2), run by assay provider. It is filed as functional.
Experiment [20] addresses T4, Orexin receptor type 2. The experiment can be described thus: Counterscreen assay for antagonists of the orexin 1 receptor (OX1R; HCRTR1): Homogeneous Time Resolved Fluorescence (HTRF)-based cell-based dose response assay for antagonists of the orexin 2 receptor (OX2R; HCRTR2), run by assay provider. It is filed as functional.
Experiment [21] concerns the target Mitogen-activated protein kinase 9 (Homo sapiens, UniProt P45984). It is filed as functional.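 Note: value from a kinome panel profiling assay, MAPK9 panel entry.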
Experiment [22] addresses Aurora kinase A (Homo sapiens, UniProt O14965). It is filed as functional.
For experiment [23], the target named is Vascular endothelial growth factor receptor 2 (Homo sapiens, UniProt P35968). It is filed as functional.
Experiment [24] addresses Aurora kinase B (Homo sapiens, UniProt Q96GD4). It is filed as functional.
For experiment [25], the target named is Serine/threonine-protein kinase pim-1 (Homo sapiens, UniProt P11309). It is filed as functional.
Experiment [26] addresses Cell division cycle 7-related protein kinase (Homo sapiens, UniProt O00311). It is filed as functional.
Experiment [27] deals with Homeodomain-interacting protein kinase 2 (Homo sapiens, UniProt Q9H2X6). It is filed as functional.
In experiment [28] the target is Interleukin-1 receptor-associated kinase 4 (Homo sapiens, UniProt Q9NWZ3). It is filed as functional.
Experiment [29] has as its target Glycogen synthase kinase-3 beta (Homo sapiens, UniProt P49841). It is filed as functional.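 Note: value comes from a broad kinome profiling panel, with GSK3B as the panel member.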
Experiment [30] addresses cAMP-dependent protein kinase catalytic subunit alpha (Homo sapiens, UniProt P17612). It is filed as functional.
Experiment [31] deals with Mitogen-activated protein kinase kinase kinase kinase 4 (Homo sapiens, UniProt O95819). It is filed as functional.

The record followed here is ChEMBL document CHEMBL1201862, “PubChem BioAssay data set” (2004).

Active and inactive are the calls of the source.

T4 sequence (O43614 whole entry): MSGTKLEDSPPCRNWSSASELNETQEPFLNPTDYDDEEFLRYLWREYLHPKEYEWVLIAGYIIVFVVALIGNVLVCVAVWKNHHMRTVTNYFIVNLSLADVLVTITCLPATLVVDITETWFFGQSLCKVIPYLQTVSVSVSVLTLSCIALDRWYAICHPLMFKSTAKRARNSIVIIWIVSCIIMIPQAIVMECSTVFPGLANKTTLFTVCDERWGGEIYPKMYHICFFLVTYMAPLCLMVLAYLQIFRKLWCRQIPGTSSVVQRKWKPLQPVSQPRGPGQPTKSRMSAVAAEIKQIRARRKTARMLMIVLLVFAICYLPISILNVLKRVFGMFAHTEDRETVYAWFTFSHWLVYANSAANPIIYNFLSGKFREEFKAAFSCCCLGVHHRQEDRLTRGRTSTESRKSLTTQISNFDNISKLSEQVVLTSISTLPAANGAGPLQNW
Chain of Voltage-gated inwardly rectifying potassium channel KCNH2 (Q12809 whole entry): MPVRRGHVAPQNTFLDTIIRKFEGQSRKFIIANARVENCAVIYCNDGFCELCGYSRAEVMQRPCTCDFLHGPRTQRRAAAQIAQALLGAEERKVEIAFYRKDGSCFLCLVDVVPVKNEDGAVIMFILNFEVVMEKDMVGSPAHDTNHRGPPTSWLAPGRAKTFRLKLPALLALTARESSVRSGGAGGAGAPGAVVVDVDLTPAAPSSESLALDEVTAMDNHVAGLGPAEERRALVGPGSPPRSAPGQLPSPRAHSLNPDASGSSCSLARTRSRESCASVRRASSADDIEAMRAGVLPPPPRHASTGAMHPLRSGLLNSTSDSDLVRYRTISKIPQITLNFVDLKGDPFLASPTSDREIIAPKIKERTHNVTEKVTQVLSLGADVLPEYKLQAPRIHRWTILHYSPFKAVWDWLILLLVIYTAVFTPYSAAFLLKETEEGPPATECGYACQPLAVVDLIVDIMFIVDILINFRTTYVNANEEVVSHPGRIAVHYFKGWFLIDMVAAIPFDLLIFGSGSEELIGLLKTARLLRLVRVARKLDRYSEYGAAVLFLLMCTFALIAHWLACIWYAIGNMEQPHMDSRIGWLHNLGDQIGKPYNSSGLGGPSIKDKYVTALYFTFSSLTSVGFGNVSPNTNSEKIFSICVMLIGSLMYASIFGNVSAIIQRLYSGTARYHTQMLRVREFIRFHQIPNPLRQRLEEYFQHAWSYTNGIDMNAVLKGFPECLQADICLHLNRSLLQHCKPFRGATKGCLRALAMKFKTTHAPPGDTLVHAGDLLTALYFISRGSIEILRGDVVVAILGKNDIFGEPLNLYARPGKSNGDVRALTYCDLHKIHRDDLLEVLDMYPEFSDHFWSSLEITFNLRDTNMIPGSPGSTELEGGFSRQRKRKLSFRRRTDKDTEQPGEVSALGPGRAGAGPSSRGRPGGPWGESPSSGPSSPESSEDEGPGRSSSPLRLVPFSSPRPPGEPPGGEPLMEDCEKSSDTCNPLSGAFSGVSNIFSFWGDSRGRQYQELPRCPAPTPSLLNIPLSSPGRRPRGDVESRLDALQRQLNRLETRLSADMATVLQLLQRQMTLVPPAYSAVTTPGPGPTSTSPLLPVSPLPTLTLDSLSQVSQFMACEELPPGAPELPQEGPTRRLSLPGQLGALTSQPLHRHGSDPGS
Chain of Homeodomain-interacting protein kinase 2 (Q9H2X6 whole entry): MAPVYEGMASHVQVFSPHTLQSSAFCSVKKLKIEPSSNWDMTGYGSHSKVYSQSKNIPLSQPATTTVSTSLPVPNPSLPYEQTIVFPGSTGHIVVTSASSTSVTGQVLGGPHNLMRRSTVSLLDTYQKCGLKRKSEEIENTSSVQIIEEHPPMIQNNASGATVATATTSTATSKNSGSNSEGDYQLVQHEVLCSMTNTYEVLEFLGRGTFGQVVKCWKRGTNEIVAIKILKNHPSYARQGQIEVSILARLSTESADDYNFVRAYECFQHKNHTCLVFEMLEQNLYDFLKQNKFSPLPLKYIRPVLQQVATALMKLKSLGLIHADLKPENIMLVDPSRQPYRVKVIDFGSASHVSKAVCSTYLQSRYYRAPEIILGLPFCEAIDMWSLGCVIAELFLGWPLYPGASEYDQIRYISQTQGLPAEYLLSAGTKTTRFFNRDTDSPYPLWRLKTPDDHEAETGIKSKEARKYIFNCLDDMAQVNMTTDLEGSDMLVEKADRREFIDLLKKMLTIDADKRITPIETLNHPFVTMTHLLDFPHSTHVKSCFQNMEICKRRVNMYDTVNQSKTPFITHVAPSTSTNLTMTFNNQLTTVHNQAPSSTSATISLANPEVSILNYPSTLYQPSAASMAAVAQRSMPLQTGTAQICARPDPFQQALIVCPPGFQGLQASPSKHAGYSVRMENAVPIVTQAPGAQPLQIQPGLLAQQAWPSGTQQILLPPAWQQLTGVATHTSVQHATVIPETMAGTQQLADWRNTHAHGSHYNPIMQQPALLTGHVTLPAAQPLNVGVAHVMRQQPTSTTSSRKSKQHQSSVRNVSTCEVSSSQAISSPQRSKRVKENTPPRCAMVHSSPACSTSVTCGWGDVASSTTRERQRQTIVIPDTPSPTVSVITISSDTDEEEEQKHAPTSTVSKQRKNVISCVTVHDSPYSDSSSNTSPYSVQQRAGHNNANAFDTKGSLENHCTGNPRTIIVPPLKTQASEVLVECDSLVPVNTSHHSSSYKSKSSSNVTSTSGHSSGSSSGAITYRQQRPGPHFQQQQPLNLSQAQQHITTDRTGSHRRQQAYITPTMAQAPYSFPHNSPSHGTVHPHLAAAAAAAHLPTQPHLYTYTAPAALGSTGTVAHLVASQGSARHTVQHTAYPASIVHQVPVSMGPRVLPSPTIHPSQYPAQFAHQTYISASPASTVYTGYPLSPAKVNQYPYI
Chain of Sphingosine 1-phosphate receptor 2 (O95136 whole entry): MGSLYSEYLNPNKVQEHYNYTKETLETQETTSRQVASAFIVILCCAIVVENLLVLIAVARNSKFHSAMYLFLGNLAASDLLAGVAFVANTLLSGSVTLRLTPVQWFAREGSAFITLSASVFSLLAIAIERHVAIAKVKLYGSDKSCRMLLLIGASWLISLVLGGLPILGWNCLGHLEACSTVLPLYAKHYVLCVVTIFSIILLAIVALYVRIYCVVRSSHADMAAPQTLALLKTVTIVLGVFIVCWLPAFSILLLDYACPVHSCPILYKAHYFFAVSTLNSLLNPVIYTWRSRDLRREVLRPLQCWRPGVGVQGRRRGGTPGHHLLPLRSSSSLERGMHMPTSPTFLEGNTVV
Chain of Mitogen-activated protein kinase 9 (P45984 whole entry): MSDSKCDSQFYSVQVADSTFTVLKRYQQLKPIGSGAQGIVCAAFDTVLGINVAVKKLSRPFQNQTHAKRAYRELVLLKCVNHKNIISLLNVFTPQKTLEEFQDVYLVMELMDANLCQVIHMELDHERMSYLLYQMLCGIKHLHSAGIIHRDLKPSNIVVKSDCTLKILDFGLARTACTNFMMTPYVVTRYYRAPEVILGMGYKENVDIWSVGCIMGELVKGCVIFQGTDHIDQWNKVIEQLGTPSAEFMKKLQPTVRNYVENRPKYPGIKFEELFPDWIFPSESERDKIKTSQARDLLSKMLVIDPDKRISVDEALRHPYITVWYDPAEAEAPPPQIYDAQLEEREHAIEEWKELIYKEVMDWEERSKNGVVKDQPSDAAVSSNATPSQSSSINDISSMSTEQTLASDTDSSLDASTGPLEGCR
Chain of Mu-type opioid receptor (P35372 whole entry): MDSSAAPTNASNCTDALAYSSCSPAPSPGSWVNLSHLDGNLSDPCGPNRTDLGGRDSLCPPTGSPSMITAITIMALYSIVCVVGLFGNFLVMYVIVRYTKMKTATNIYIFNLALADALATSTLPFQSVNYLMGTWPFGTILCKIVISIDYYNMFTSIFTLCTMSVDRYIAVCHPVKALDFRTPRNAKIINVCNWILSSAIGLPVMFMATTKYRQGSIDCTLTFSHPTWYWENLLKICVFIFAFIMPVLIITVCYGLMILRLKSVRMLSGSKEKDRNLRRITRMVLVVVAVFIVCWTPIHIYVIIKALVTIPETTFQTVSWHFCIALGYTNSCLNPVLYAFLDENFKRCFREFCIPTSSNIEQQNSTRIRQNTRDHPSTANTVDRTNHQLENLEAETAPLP
Chain of Serine/threonine-protein kinase D3 (O94806 whole entry): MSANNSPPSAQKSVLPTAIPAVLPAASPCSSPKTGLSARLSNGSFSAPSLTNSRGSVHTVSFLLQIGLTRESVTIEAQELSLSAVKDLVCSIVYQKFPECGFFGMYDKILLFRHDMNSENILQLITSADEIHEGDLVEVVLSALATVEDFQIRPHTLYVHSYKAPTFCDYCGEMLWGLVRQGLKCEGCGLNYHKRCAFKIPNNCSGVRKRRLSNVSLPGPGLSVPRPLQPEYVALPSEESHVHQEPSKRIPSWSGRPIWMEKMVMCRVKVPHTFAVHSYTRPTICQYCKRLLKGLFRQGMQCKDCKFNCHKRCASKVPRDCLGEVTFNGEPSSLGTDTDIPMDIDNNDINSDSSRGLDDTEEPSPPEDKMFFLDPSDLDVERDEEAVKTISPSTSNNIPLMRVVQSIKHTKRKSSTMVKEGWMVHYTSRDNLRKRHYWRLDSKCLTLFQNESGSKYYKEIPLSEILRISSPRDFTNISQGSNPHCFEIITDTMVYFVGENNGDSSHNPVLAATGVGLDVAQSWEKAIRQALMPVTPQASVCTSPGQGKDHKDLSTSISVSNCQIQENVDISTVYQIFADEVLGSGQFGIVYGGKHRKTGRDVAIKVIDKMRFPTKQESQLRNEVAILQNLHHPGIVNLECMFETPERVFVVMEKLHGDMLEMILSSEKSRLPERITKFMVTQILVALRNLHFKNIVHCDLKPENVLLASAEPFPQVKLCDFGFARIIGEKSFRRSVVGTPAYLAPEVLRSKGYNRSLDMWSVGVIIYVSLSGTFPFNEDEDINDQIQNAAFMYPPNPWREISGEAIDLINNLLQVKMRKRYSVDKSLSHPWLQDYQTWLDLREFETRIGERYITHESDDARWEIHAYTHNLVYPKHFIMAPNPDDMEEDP

Regarding `CCCCCCCC/C=C\CCCCCCCC(=O)NCCc1ccc(O)c(O)c1` [OLEOYL DOPAMINE], the AC50 in experiment [1] is 2.59 µM (active); in experiment [8], 18.1 µM (active); in [9] it was 20 µM (inconclusive); in experiment [10], 35.5 µM (inconclusive). Besides, the EC50 in experiment [2] is > 54.7 µM (inactive); in [3], 8.94 µM (active); in [5] it was > 54.7 µM (inactive); in experiment [6], 92.3 µM (inactive); in experiment [7], 0.957 µM (active). Moreover, the IC50 in experiment [4] is 30.5 µM (inactive).
As for `CCN(CC)C(=O)c1cc(C2CC2)on1`, the EC50 in experiment [11] and in experiment [12] was > 50 µM (inactive) each time.
In the case of `CCOc1nc(NC(=O)C(C)C)cc(N)c1C#N`, the inhibition constant (Ki) is 7.94 µM (active) in experiment [13] and 1.26 µM (active) in experiment [14].
Take `O=C(C1CCCN1S(=O)(=O)c1cccc2cccnc12)N1CCn2c1nc1ccccc12` (stereo unspecified): the IC50 is > 66.2 µM (inactive) in [15]; > 49.7 µM (inactive) in experiment [16]; 0.153 µM (active) in experiment [17]; 3.36 µM (active) in experiment [18]; > 88.8 µM (inactive) in experiment [19]; 9.68 µM (active) in [20].
As for `CC(C)(C)c1cc(NC(=O)c2cc3ccccc3s2)n(-c2cccc(OCC(=O)O)c2)n1`, the inhibitory constant (Ki) in experiment [21] was 2 µM (active).
Take `O=S(=O)(Nc1ccc2c(c1)C(=NO)c1ccccc1-2)c1ccccc1F`: the results for the Ki in experiment [22], in experiment [23] and in experiment [24] were 0.794 µM (active), 0.794 µM (active) and 0.02 µM (active), respectively.
Consider `Cc1n[nH]c2ccc(-c3cncc(OCCNS(C)(=O)=O)c3)cc12`, for which the Ki in [25] is 5.01 µM (active); in experiment [26], 0.0631 µM (active); in [27], 1 µM (active); in experiment [28], 3.98 µM (active); in [29] it was 1 µM (active); in [30], 6.31 µM (active). The Ki in experiment [31] was 0.0794 µM (active).
